Five compounds from patent US20190322643A1 (Georgia State University Research Foundation, Inc., priority 2016, published 2019) can be followed below.

A word on the inhibition: it is how much of the control response was suppressed. One may read the IC50 as the concentration that inhibits the measured activity by half. The term EC50 denotes the concentration that produces a half-maximal response.

Entries after “also recorded” stand apart in the source; their conditions may differ. Where two headings read alike, the source gives them in different places. A value given as a limit tells only on which side of the number the result lay.

The target in series [1] is T1, Mouse histone methyltransferase G9a (969-1263) (Mus musculus, UniProt Q9Z148).
T1 construct: The 6His-sumo mG9a (969-1263) protein was purified using the following procedure; 6His-sumo (cleaved yes); made in house; host or cells: Escherichia coli BL21 (DE3)
T1 sequence (Q9Z148 969-1263): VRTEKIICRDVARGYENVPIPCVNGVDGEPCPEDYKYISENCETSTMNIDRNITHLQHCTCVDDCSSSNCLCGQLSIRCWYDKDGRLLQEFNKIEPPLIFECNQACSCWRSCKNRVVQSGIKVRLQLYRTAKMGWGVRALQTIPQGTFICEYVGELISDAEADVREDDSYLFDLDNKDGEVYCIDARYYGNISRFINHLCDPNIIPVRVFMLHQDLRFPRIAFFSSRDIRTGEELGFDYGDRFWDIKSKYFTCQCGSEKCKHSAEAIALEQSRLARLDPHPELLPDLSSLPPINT
In words: MALDI-TOF methylation study of G9a inhibition. The series is classed as biochemical. To be noted: inhibitors at 5 μM concentration for 30 min. The procedure:
Mouse histone methyltransferase G9a (969-1263) cDNA was amplified from the cDNA of BALB/c mouse thymus, and the fragment was sub-cloned into a vector with a 6His-sumo tag. […] The 6His-sumo mG9a (969-1263) protein was purified using the following procedure: harvested cell pellet was re-suspended in 20 mM Tris (pH 8.0), 500 mM NaCl, 0.1% β-mercaptoethanol, and 1 mM PMSF. Cells were lysed by sonicating for 15 seconds with 6 second intervals for a total time of 15 minutes on an ice bath. […] The 6His-sumo tag was cleaved from the column by adding Ubiquitin-like-specific protease 1 (ULP-1) at 4° C. for 12 hours. Wash buffer was then run through the Ni^+ column again and the elution buffer collected. Subsequently, advanced protein purification was done by HiTrap Q HP sequential Superdex 200 10/300 GL. Elute of every step was analyzed by SDS PAGE, stained by Coomassie brilliant blue (CBB). […] The reaction was incubated at room temperature for 30 min, and stopped by TFA. 1 μL of the sample was mixed with CHCA matrix and m/z peaks were obtained at reflection positive mode. The results of mass spectrum were analyzed using the Bruker flex analysis software and data processing was carried out as described below. MALDI-TOF based experiments were performed according to the protocol developed by Chang et al. (Nat. Struct. Mol. Biol. 2009, 16, 312-317). MALDI spectra were collected using Bruker flex control software and analyzed by flex analysis. After labelling each cluster peaks of H3K9Me0, H3K9Me1 and H3K9Me2 for all of the tested concentrations, area under the cluster (AUC) were extracted by using the same flex analysis software. % abundance of each peak was calculated by following formula: A=% Abundance of (H3K9Me0)=area of H3K9Me0/(area of H3K9Me0+area of H3K9Me1+area of H3K9Me2) B=% Abundance of (H3K9Me1)=area of H3K9Me1/(area of H3K9Me0+area of H3K9Me1+area of H3K9Me2) C=% Abundance of (H3K9Me2)=area of H3K9Me2/(area of H3K9Me0+area of H3K9Me1+area of H3K9Me2). This was repeated for each spectra (3 multiples for each samples). […] Finally % inhibition was found by subtracting % MA(i) from 100. […] A biochemical assay using MALDI-TOF was used to visualize the effects of the synthesized compounds on G9a enzymatic activity. […] Struct. Mol. Biol. 2009, 16, 312-317).

Series [2] deals with T2, G9a (Homo sapiens, UniProt Q96KQ7).
T2 construct: endogenous in cells; host or cells: MDA-MB-231
T2 sequence (Q96KQ7 1-1210): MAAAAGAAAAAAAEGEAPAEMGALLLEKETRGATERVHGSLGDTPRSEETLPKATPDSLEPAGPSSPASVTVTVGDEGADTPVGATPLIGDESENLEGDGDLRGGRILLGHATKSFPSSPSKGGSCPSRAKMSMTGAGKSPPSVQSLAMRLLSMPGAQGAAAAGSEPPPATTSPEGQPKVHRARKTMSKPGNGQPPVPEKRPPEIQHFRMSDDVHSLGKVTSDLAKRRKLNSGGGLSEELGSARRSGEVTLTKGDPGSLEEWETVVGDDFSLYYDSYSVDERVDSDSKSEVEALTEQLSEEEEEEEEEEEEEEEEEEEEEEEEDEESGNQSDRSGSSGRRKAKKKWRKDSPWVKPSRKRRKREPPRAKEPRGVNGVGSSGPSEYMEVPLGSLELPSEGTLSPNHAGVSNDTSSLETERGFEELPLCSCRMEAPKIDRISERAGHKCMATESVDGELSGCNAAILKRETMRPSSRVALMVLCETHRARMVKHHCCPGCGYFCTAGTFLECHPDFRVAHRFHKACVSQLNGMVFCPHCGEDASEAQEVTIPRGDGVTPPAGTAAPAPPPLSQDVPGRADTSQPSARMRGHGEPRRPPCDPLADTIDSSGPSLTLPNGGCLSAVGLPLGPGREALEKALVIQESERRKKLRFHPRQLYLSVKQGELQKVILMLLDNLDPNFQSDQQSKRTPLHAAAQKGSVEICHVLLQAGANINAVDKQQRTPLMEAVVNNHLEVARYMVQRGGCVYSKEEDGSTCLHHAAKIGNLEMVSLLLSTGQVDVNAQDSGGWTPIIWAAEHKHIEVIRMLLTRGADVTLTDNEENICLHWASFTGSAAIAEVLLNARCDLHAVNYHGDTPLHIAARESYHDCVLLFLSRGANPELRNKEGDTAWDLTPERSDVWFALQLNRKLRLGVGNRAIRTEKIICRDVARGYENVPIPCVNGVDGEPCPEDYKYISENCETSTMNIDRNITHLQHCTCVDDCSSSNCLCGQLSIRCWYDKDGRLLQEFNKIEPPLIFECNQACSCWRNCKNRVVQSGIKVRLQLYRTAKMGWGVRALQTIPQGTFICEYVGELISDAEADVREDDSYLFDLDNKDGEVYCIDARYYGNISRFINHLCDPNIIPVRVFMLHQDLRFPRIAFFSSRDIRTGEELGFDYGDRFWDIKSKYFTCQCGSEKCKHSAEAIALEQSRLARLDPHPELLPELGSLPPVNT
The series is described as follows: H3K9Me2 cell immunofluorescence in-cell Western (ICW) assay. The class given is cell-based. To be noted: MDA-MB-231 cell line, 48 h. The procedure:
After the incubation, the media was removed and 100 μl fixation and permeabilization solution (2% formaldehyde in PBS) for fixation was added for 30 min. And then use 200 μl 0.1% Triton X100 in PBS washing solution to wash (allow wash to shake on a plate shaker for 5 minutes). After five washes, cells were blocked for 1 h with 150 μl blocking buffer to each well (1% BSA in PBS) (allow blocking at RT with moderate shaking on a plate shaker). After 1 h, remove the blocking buffer from the blocking step and add primary antibody in blocking buffer to cover the bottom of each well. […] The plates were read on an Odyssey CLX (LiCor) scanner at both 800 nm (H3K9me2 signal) and 700 nm (cell tag 700 stain signal) channels. IC50s were calculated using GraphPad Prizm statistical package with sigmoidal variable slope dose response curve fit.

Series [3] has as its system A549. In words: Cytotoxicity / anti-proliferation assay (CCK-8), A549. The class given is cell-based. The following applies: Homo sapiens, 72 h, CCK-8 kit. The procedure: (§1) Then the cells were exposed to the different inhibitors with various concentrations for 72 h. […] EC50s were calculated using GraphPad Prizm statistical package with sigmoidal variable slope dose response curve fit.
(§2) Cell anti-proliferation assays were performed to determine the toxicity of these inhibitors. […] These compounds were further evaluated against the control cell line HEK293 to test their toxicity with a non-cancerous cell line.
In general terms: Formazan colour is commonly taken as a measure of viable cells.

For series [4], the system named is HCT-8. The series is described as follows: Cytotoxicity / anti-proliferation assay (CCK-8), HCT-8. The series is classed as cell-based. The following applies: Homo sapiens, 72 h, CCK-8 kit. Here is the method:
as §1, §2

For series [5], the system named is HDAC. In words: Homogeneous cellular HDAC assay, statements in text without one cell line. The following applies: result in words.
Experimental: (§5) After 24 h, 9 μl inhibitors with different concentration were added to the HeLa cells and incubation was continued for 3 h under cell culture conditions. After this treatment period, 10 μl of a 2 mM stock solution of the substrate Boc-K(Ac)-AMC was added into the 96 well plates with Hela cells and inhibitors. […] A549 and K562 cell lines used the same method, respectively. IC50s were calculated using GraphPad Prizm statistical package with sigmoidal variable slope dose response curve fit.
(§6) Boc-K(Ac)-AMC was used as a cell-permeable HDAC substrate, as after deacetylation it is cleaved by trypsin to release the florescent 7-amino-4-methylcoumarin (AMC).
For series [6], the system named is MDA-MB-231. The series is described as follows: Cytotoxicity / anti-proliferation assay (CCK-8), MDA-MB-231. The series is classed as cell-based. The following applies: Homo sapiens. Here is the method: (§3) A549, MDA-MB-231, HCT-8, MCF-7, and HEK293 cells were seeded at 8000-10000 cells (100 μl) in white 96-well plates and pre-incubate the plate for 24 h under standard cell culture conditions, respectively. Then the cells were exposed to the different inhibitors with various concentrations for 72 h. Finally, 10 μl of CCK-8 kit solution was added to each well and incubated for 3-4 hours under standard cell culture conditions, and the 96 well plates were measured the absorbance at 450 nm using Perkin-Elmer Wallac Victor ^3V 1420 multi label plate reader (Perkin-Elmer, Wellesley, USA). EC50s were calculated using GraphPad Prizm statistical package with sigmoidal variable slope dose response curve fit.
(§4) Cell anti-proliferation assays were performed to determine the toxicity of these inhibitors. Several cell lines (MDA-MB-231, MCF-7, A549 and HCT-8) were incubated and then treated with varying concentrations of the inhibitors for 72 h, respectively. […] These compounds were further evaluated against the control cell line HEK293 to test their toxicity with a non-cancerous cell line.

Series [7] relates to HEK293. The series is described as follows: Toxicity assay (CCK-8) in control non-cancerous cell line. The series is classed as cell-based. The procedure:
as §3, §4

The test system of series [8] is HDAC. In words: Cell based homogenous HDAC assay, Hela. The following applies: read-out: IC50-HDAC Hela; Hela cells, mean ± SD of triplicate.
Experimental: as §5, §6
Series [9] relates to HDAC. In words: Cell based homogenous HDAC assay, A549. The following applies: read-out: IC50-HDAC A549; A549 cells, mean ± SD of triplicate.
Experimental: as §5, §6
Series [10] relates to HDAC. In words: Cell based homogenous HDAC assay, K562. The following applies: read-out: IC50-HDAC K562; K562 cells, mean ± SD of triplicate.
Experimental: as §5, §6
The mark [11] stands for this setting: alone or as 1:1 mixture, 1-100 μM, read-out: EC50 value.

Regarding `COc1cc2nc(NCCNC(=O)CCCCCC(=O)NO)nc(NC3CCN(Cc4ccccc4)CC3)c2cc1OC` [Compound 5b, N1-(2-((4-((1-benzylpiperidin-4-yl)amino)-6,7-dimethoxyquinazolin-2-yl)amino)ethyl)-N7-hydroxyheptanediamide], the inhibition at 5 µM in series [1] worked out at 38 ± 4.99%. Moreover, the 50% inhibitory concentration (IC50) in series [2] was 87.4 ± 5.44 µM. In addition, the EC50 in series [3] and in series [4] was > 100 µM throughout. Also, the HDAC inhibition activity result in series [5] is on record as “much lower than that of 14”.
As to `COc1cc2nc(N3CCCN(C)CC3)nc(NC3CCN(Cc4ccccc4)CC3)c2cc1OC.Cl.Cl.Cl` [BIX-01294, 2-(hexahydro-4-methyl-1H-1,4-diazepin-1-yl)-6,7-dimethoxy-N-[1-(phenylmethyl)-4-piperidinyl]-4-quinazolinamine trihydrochloride, reference compound], the inhibition at 5 µM in series [1] was found to be 77.7 ± 5.73%. Moreover, in [6] (setting [11]), the EC50 amounted to 2.16 ± 0.88 µM. Also, in series [7], the “toxicity in normal cell line” value was “toxic”. Also, the IC50 in series [8], in series [9] and in series [10] was > 100 µM in each case.
Compound `COc1ccc2c(NC3CCN(Cc4ccccc4)CC3)nc(NCCNC(=O)CCCCCCC(=O)NO)nc2c1` [Compound 13, N1-(2-((4-((1-benzylpiperidin-4-yl)amino)-7-methoxyquinazolin-2-yl)amino)ethyl)-N8-hydroxyoctanediamide] gave an inhibition at 5 µM in series [1] of 62 ± 14.4%. The same compound had an IC50 in series [2] of 37.8 ± 2.8 µM. For the same compound, the half-maximal effective concentration (EC50) in [4] was > 100 µM. Further, in series [7], the “toxicity in normal cell line” value is on record as “lower toxicity”. Also, in series [5], the HDAC inhibition activity result is “significant HDAC inhibition”.
The like results for `COc1ccc2c(NC3CCN(Cc4ccccc4)CC3)nc(NCCNC(=O)CCCCCC(=O)NO)nc2c1` [Compound 14, N1-(2-((4-((1-benzylpiperidin-4-yl)amino)-7-methoxyquinazolin-2-yl)amino)ethyl)-N7-hydroxyheptanediamide] were, in that order, 69.5 ± 3.43%, 7.14 ± 1.62 µM, 73.1 ± 1.21 µM, “lower toxicity; also recorded: less toxic compared to 13” and “significant HDAC inhibition”.
Regarding `O=C(CCCCCCC(=O)Nc1ccccc1)NO` [SAHA, N-hydroxy-N′-phenyl-octanediamide], the EC50 came to 2.87 ± 0.84 µM in [6] (72 h, CCK-8 kit, read-out: EC50 MDA-MB-231) and 2.87 ± 0.84 µM in [6] (setting [11]). Moreover, the “toxicity in normal cell line” value in [7] is “toxic”.
